{
  "source": "patent US20230414609A1",
  "about": "“USES OF ORAI1-SPECIFIC CALCIUM CHANNELS IN TREATMENT OF ORAL CANCER” (New York University, priority 2022, published 2023)",
  "key": {"SOCE in HSC-3 cells": {"system": "SOCE in HSC-3 cells", "test": "SOCE ([Ca2+]cyto) after CPA stimulation in HSC-3 cells", "assay_type": "cell-based, human", "conditions": "in the presence of the blocker", "description": "FIG. 1: (A) Heatmap contrast of average variance stabilizing transformation (VST) of ORAI1, ORAI2 and ORAI3 genes between normal (control: N=3 samples) and tongue cancer patients (N=10 samples). Statistical significance was analyzed using the Benjamini-Hochberg FDR (5%) and fold change of 1.5. Both FDR values and fold change were generated using DESeq2. (B-D) show haematoxylin and eosin (H&E) staining (left) and immunofluorescence staining of ORAI1 (right) in the boxed areas of tongue tissue sections showing normal (B), dysplastic (C) and invasive tumor (D) phenotypes. Nuclear staining by 4′,6-diamidino-2-phenylindole (DAPI) is shown in blue. Scale bar, 200 μm. […] (H) and (J) show qRT-PCR analyses of ORAI1 gene expression by the 2^−ΔΔCT method comparing control (scrambled shRNA) and shORAI1 (ORAI1 KD) HSC-3 cells (H) or CRISPR/Cas9 ORAI1 (ORAI1 KO) (J). (I) and (K) show [Ca^2+]cyto measurements comparing control HSC-3 cells compared to shORAI1 (ORAI1 KD) (I) or compared to CRISPR/Cas9 ORAI1 (ORAI1 KO) (K) (left). Quantification of SOCE corrected for baseline Ca^2+ levels as Δpeak (F−F0) (right). (L) and (M) show cell proliferation measured using MTS comparing control HSC-3 cells compared to shORAI1 (ORAI1 KD) (L) or compared to CRISPR/Cas9 ORAI1 (ORAI1 KO) (M). […]"}, "HSC-3 cells [1]": {"system": "HSC-3 cells", "test": "Cell proliferation, colorimetric assay MTS", "assay_type": "cell-based, human", "description": "FIG. 1: (A) Heatmap contrast of average variance stabilizing transformation (VST) of ORAI1, ORAI2 and ORAI3 genes between normal (control: N=3 samples) and tongue cancer patients (N=10 samples). Statistical significance was analyzed using the Benjamini-Hochberg FDR (5%) and fold change of 1.5. Both FDR values and fold change were generated using DESeq2. (B-D) show haematoxylin and eosin (H&E) staining (left) and immunofluorescence staining of ORAI1 (right) in the boxed areas of tongue tissue sections showing normal (B), dysplastic (C) and invasive tumor (D) phenotypes. Nuclear staining by 4′,6-diamidino-2-phenylindole (DAPI) is shown in blue. Scale bar, 200 μm. […] Quantification of SOCE corrected for baseline Ca^2+ levels as Δpeak (F−F0) (right). (L) and (M) show cell proliferation measured using MTS comparing control HSC-3 cells compared to shORAI1 (ORAI1 KD) (L) or compared to CRISPR/Cas9 ORAI1 (ORAI1 KO) (M).\nTo address the role of SOCE in key cancer hallmarks such as cell proliferation in oral cancer, we used two independent approaches to eliminate ORAI1 expression in HSC-3 cells. […] To address the effects of ORAI1 in cell proliferation, we analyzed HSC-3 cells in the presence of synta-66 and in which ORAI1 expression had been reduced by shORAI1 or CRISPR/Cas9 editing using the colorimetric assay MTS (FIG. 1, L and M)."}, "[2]": {"system": "MMP1 gene expression in HSC-3 cells", "test": "qRT-PCR of MMP1 gene expression in HSC-3 cells", "assay_type": "cell-based, human", "description": "(D) is a schematic of the Boyden chambers and solutions used to quantify cell invasion. DOK cells overexpressing ORAI1 (O1) and STIM1 (S1) were seeded in the top chamber with 2% FBS. Media in the bottom chamber contained 10% FBS.\nThe role of ORAI1 in oral cancer progression was further elucidated by examining the expression of oncogenes in oral cancer, such as MMP1^9,27, as a proof of concept. We first verified the expression of MMP1 in HaCaT, DOK and HSC-3 cells by qRT-PCR analysis. All cells expressed MMP1 in the order oral cancer HSC-3 cells>dysplastic DOK cells>HaCaT cells (FIG. 2A). We next stimulated HSC-3 cells using different concentrations of CPA to examine changes in MMP1 gene expression mediated by SOCE activation. […] These findings were further supported by the decrease in the expression of MMP1 seen in HSC-3 cells with ORAI1 knockdown or deletion. Because in many cells SOCE activation targets the phosphorylation of the transcription factor NFAT (nuclear factor of activated T cells) and its downstream effectors ^28, and because a previous study implicated NFAT in regulating stemness in oral cancer cells ^16, we next interrogated if the transcriptional up-regulation of MMP1 was downstream of NFAT. We first verified the expression of NFAT isoforms (NFAT1-4) in HaCaT, DOK and HSC-3 cells by qRT-PCR analysis showing that NFAT4 (coded by NFATc3) was the most abundant transcript."}, "HSC-3 cells [3]": {"system": "HSC-3 cells", "test": "Bulk RNA-seq of CPA stimulated HSC-3 cells", "assay_type": "cell-based, human"}, "SOCE in SCC-9 cells": {"system": "SOCE in SCC-9 cells", "test": "SOCE ([Ca2+]cyto) after CPA stimulation in SCC-9 cells", "assay_type": "cell-based, human", "conditions": "in the presence of the blocker", "source_text": "(§1) To investigate SOCE in oral cancer cells, we first used qRT-PCR analysis to analyze the expression of ORAI1-3 in the human oral squamous cell carcinoma (OSCC) cell lines HSC-3 and SCC-9, in the dysplastic oral keratinocytes DOK cells, and in spontaneously transformed normal keratinocytes HaCaT cells. […] Next, we tested whether these cells had functional SOCE by stimulating them with cyclopiazonic acid (CPA), a reversible blocker of the sarco-endoplasmic reticulum Ca^2+ ATPase (SERCA) pump that passively depletes the ER Ca^2+ stores inducing STIM1/ORAI1 coupling and SOCE activation ^22,23. […] We also examined the contribution of other channels that have been implicated in Ca^2+ influx in various cancer cells."}, "TRPM7": {"biological_target": "T1, TRPM7 (Homo sapiens, UniProt Q96QT4)", "T1 construct": "Stimulation of transient receptor channels TRPM7, TRPA1 and TRPV1 in HSC-3 cells; endogenous in cells; host or cells: HSC-3 (human oral squamous cell carcinoma)", "T1 sequence (Q96QT4 whole entry)": "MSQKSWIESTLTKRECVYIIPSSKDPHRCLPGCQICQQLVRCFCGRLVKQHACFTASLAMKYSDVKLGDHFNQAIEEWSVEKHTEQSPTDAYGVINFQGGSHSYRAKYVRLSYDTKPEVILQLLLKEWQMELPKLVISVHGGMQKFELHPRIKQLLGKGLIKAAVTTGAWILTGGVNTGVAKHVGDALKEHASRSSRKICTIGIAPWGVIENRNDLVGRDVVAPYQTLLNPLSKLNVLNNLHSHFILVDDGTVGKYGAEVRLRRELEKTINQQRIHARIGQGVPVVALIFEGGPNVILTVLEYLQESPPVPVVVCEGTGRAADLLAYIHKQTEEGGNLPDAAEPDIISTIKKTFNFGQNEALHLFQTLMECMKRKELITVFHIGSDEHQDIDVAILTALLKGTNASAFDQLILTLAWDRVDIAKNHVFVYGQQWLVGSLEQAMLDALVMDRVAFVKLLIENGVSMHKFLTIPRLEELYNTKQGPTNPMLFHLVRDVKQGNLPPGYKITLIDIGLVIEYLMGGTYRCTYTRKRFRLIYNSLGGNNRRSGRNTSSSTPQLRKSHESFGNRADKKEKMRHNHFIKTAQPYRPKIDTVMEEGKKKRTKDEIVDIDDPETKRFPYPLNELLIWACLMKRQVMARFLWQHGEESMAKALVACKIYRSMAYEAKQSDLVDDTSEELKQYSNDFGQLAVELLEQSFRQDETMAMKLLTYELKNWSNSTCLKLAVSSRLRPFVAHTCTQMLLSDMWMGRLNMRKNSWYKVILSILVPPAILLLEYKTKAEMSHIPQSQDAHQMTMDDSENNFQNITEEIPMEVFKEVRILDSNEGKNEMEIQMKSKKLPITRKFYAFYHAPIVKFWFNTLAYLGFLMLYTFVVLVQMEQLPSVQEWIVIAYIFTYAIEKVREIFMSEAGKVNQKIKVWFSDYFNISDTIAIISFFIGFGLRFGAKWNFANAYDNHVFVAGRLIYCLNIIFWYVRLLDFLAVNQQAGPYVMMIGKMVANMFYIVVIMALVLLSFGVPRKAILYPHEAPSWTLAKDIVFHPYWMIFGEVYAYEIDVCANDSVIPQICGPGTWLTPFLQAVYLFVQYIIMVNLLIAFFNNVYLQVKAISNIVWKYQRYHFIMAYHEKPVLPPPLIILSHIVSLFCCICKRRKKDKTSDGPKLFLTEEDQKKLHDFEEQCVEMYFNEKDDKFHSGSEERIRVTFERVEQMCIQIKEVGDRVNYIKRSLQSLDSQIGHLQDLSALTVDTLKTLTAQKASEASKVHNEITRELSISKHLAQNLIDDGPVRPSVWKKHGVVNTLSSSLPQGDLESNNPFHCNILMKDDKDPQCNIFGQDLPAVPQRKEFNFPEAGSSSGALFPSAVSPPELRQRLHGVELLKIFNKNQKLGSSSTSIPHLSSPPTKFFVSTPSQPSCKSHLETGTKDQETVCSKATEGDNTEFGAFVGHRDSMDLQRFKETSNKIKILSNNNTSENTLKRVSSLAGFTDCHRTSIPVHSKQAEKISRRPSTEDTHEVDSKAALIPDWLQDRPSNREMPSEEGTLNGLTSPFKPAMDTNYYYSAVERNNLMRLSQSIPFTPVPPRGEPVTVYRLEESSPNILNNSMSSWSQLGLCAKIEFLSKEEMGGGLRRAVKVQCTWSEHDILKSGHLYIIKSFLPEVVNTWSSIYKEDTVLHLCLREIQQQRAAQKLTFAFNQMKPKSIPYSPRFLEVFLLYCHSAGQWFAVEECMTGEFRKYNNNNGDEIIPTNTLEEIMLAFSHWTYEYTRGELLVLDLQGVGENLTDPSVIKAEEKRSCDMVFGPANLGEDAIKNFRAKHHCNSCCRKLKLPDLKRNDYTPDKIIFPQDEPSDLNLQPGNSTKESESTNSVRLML", "test": "Stimulation of TRPM7 in HSC-3 cells, cytosolic Ca2+", "assay_type": "cell-based", "conditions": "TRPM7 agonist, in the presence of Ca2+", "source_text": "as §1"}, "TRPV1": {"biological_target": "T2, TRPV1 (Homo sapiens, UniProt Q8NER1)", "T2 construct": "Stimulation of transient receptor channels TRPM7, TRPA1 and TRPV1 in HSC-3 cells; endogenous in cells; host or cells: HSC-3 (human oral squamous cell carcinoma)", "T2 sequence (Q8NER1 whole entry)": "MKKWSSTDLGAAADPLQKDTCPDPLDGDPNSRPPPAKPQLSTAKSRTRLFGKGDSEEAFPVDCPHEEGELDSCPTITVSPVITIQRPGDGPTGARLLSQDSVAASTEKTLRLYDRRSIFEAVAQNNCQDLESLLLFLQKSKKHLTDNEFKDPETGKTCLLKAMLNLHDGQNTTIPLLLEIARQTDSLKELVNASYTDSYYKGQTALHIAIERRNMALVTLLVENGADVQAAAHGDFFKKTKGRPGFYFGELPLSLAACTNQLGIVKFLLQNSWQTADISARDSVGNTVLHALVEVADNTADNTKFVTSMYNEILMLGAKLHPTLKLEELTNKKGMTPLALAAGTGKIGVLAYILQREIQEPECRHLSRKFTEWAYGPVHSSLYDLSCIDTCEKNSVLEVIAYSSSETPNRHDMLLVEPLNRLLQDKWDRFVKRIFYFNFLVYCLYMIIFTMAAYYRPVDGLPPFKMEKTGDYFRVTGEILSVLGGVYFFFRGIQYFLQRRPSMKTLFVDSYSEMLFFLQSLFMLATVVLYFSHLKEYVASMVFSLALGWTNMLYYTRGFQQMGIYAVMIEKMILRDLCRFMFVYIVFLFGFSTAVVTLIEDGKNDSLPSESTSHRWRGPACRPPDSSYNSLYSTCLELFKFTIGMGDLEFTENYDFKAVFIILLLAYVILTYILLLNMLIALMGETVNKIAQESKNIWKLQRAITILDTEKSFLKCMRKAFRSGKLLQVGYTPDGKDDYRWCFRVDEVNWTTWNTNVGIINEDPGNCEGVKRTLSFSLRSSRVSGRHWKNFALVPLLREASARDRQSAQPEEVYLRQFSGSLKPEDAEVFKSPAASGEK", "test": "Stimulation of TRPV1 in HSC-3 cells, cytosolic Ca2+", "assay_type": "cell-based", "conditions": "TRPV1 agonist, in the presence of Ca2+"}},
  "note": "Entries after “also recorded” stand apart in the source; their conditions may differ.",
  "data": [
    {"smiles": "COc1ccc(OC)c(-c2ccc(NC(=O)c3ccncc3F)cc2)c1", "note": "[synta-66]", "values": [
      {"measurement": "SOCE", "setting": "SOCE in HSC-3 cells", "value": "significantly reduced; also recorded: abolished"},
      {"measurement": "proliferation compared to control cells", "setting": "HSC-3 cells [1]", "value": "significantly decreased"},
      {"measurement": "effect on the CPA-elicited increase in MMP1 gene expression", "setting": "[2]; HSC-3 cells stimulated with CPA", "value": "attenuated the increase"},
      {"measurement": "mRNA level of pain modulators (VEGF-A, B and C, NGF, TLR2, PTGS2)", "setting": "HSC-3 cells [3]", "value": "down-regulated"},
      {"measurement": "number of MMP genes significantly down-regulated", "setting": "HSC-3 cells [3]; out of >21 genes in the MMP family, FDR<0.05", "value": 8},
      {"measurement": "SOCE", "setting": "SOCE in SCC-9 cells", "value": "significantly reduced"}
    ]},
    {"smiles": "CC(=O)C1=C(O)[C@@H]2[C@H]3c4c[nH]c5cccc(c45)C[C@H]3C(C)(C)N2C1=O", "note": "[CPA, cyclopiazonic acid]", "values": [
      {"measurement": "time of maximal effect on MMP1 gene expression", "setting": "[2]; HSC-3 cells, CPA stimulation", "value": 3, "unit": "h"}
    ]},
    {"smiles": "Oc1ccc2c3c1O[C@H]1c4oc5ccccc5c4C[C@@]4(O)[C@@H](C2)N(CC2CC2)CC[C@]314", "note": "[naltriben]", "values": [
      {"measurement": "increase in cytosolic Ca2+", "setting": "TRPM7", "value": "failed to evoke an increase"}
    ]},
    {"smiles": "COc1cc(CNC(=O)CCCC/C=C/C(C)C)ccc1O", "note": "[capsaicin]", "values": [
      {"measurement": "increase in cytosolic Ca2+", "setting": "TRPV1", "value": "failed to evoke an increase"}
    ]}
  ]
}
